{"source": "patent US4385058A", "about": "“Pyrimidone derivatives” (Smith Kline & French Laboratories Limited, priority 1980, dated 1983)", "system": "histamine H2 -receptors", "assay": "Inhibition of histamine-stimulated acid secretion in the Heidenhain pouch dog", "type": "in vivo", "conditions": "intravenous administration; dose levels adjusted to produce similar peak responses", "description": "Heidenhain pouch dogs can be prepared and used as described in European Specification No. 15138.", "data": [{"smiles": "Cc1ccc(Cc2cnc(NCCSCc3cc(CN(C)C)ccn3)[nH]c2=O)cn1", "note": "[Example 1, 2-[2-(4-dimethylaminomethyl-2-pyridylmethylthio)ethylamino]-5-(6-methyl-3-pyridylmethyl)-4-pyrimidone]", "values": [{"measurement": "duration of activity versus cimetidine", "value": "longer duration of activity than cimetidine"}]}]}
